According to PubChem BioAssay AID1259407 (Chemical Carcinogenesis Research Information System (CCRIS), 2018):
Active and inactive are the calls of the source. The rule behind the calls is not given here.

Test system: CCRIS mutagenicity, Ames/micronucleus/aberration tests
Assay: CCRIS mutagenicity studies

Measured: mutagenic call

Cc1c2ccccc2c(C)c2c1ccc1ccccc12
inactive: End Point: IN VIVO MICRONUCLEUS, Test System: MAMMARY GLAND CELLS, Species: RAT, Strain/Sex: SPRAGUE-DAWLEY/FEMALE, Route: INTRAGASTRIC inactive; negative | Test System: AMES SALMONELLA TYPHIMURIUM, Strain/Indicator: TA1535, Metabolic Activation: NONE, Method: SPIRAL ASSAY inactive; negative | Test System: AMES SALMONELLA TYPHIMURIUM, Strain/Indicator: TA1535, Metabolic Activation: NONE, Method: STANDARD PLATE inactive; negative
active: End Point: IN VITRO CHROMOSOMAL ABERRATIONS, Test System: CHL/IU CELLS, Metabolic Activation: RAT, LIVER, S-9, PHENOBARBITAL AND 5,6-BENZOFLAVONE active; positive (structural changes) | End Point: IN VITRO MICRONUCLEUS, Test System: CHL/IU CELLS, Metabolic Activation: RAT, LIVER, S-9, PHENOBARBITAL AND 5,6-BENZOFLAVONE active; positive | End Point: IN VITRO MICRONUCLEUS, Test System: CHO CELLS, Metabolic Activation: RAT, LIVER, S-9, AROCLOR 1254 active; positive | End Point: IN VITRO MICRONUCLEUS, Test System: V79 CELLS, Metabolic Activation: RAT, LIVER, S-9, AROCLOR 1254 active; positive | End Point: IN VIVO CHROMOSOMAL ABERRATIONS, Test System: MAMMARY GLAND CELLS, USING DUAL PROBE FISH, Species: RAT, Strain/Sex: SPRAGUE-DAWLEY/FEMALE, Route: INTRAGASTRIC active; positive (hyperdiploidy and polyploidy) | End Point: IN VIVO MICRONUCLEUS, Test System: BLOOD ERYTHROCYTES, Species: MOUSE, Strain/Sex: CD-1/MALE, Route: ORAL active; positive | Test System: AMES SALMONELLA TYPHIMURIUM, Strain/Indicator: TA97, Metabolic Activation: NONE, Method: STANDARD PLATE active; positive | Test System: AMES SALMONELLA TYPHIMURIUM, Strain/Indicator: TA97, Metabolic Activation: RAT, LIVER, S-9, PCB, Method: STANDARD PLATE active; positive | Test System: AMES SALMONELLA TYPHIMURIUM, Strain/Indicator: TA98, Metabolic Activation: NONE, Method: SPIRAL ASSAY active; positive | Test System: AMES SALMONELLA TYPHIMURIUM, Strain/Indicator: TA98, Metabolic Activation: RAT, LIVER, S-9, AROCLOR 1254, Method: SPIRAL ASSAY active; positive | Test System: AMES SALMONELLA TYPHIMURIUM, Strain/Indicator: TA98, Metabolic Activation: RAT, LIVER, S-9, AROCLOR 1254, Method: STANDARD PLATE active; positive | Test System: AMES SALMONELLA TYPHIMURIUM, Strain/Indicator: TA98, Metabolic Activation: RAT, LIVER, S-9, PCB, Method: STANDARD PLATE active; positive | Test System: AMES SALMONELLA TYPHIMURIUM, Strain/Indicator: TA98, Method: STANDARD PLATE active; positive | Test System: AMES SALMONELLA TYPHIMURIUM, Strain/Indicator: TA100, Metabolic Activation: MOUSE, LIVER, MICROSOMES, BENZO[E]PYRENE AND TCDD, Method: STANDARD PLATE active; positive | Test System: AMES SALMONELLA TYPHIMURIUM, Strain/Indicator: TA100, Metabolic Activation: NONE, Method: SPIRAL ASSAY active; positive | Test System: AMES SALMONELLA TYPHIMURIUM, Strain/Indicator: TA100, Metabolic Activation: RAT, INTACT HEPATOCYTES, AROCLOR 1254, Method: PREINCUBATION active; positive | Test System: AMES SALMONELLA TYPHIMURIUM, Strain/Indicator: TA100, Metabolic Activation: RAT, LIVER, MICROSOMES, 3-METHYLCHOLANTHRENE, Method: PREINCUBATION active; positive | Test System: AMES SALMONELLA TYPHIMURIUM, Strain/Indicator: TA100, Metabolic Activation: RAT, LIVER, MICROSOMES, SODIUM PHENOBARBITAL, Method: PREINCUBATION active; positive | Test System: AMES SALMONELLA TYPHIMURIUM, Strain/Indicator: TA100, Metabolic Activation: RAT, LIVER, MICROSOMES, SUDAN III, Method: PREINCUBATION active; positive | Test System: AMES SALMONELLA TYPHIMURIUM, Strain/Indicator: TA100, Metabolic Activation: RAT, LIVER, MICROSOMES, Method: PREINCUBATION active; positive | Test System: AMES SALMONELLA TYPHIMURIUM, Strain/Indicator: TA100, Metabolic Activation: RAT, LIVER, S-9, AROCLOR 1254, Method: SPIRAL ASSAY active; positive | Test System: AMES SALMONELLA TYPHIMURIUM, Strain/Indicator: TA100, Metabolic Activation: RAT, LIVER, S-9, AROCLOR 1254, Method: STANDARD PLATE active; positive | Test System: AMES SALMONELLA TYPHIMURIUM, Strain/Indicator: TA100, Metabolic Activation: RAT, LIVER, S-9, EUGENOL, Method: PREINCUBATION active; positive | Test System: AMES SALMONELLA TYPHIMURIUM, Strain/Indicator: TA100, Metabolic Activation: RAT, LIVER, S-9, KC500 OR PHENOBARBITAL, Method: LIQUID SUSPENSION active; positive | Test System: AMES SALMONELLA TYPHIMURIUM, Strain/Indicator: TA100, Metabolic Activation: RAT, LIVER, S-9, PCB, Method: STANDARD PLATE active; positive | Test System: AMES SALMONELLA TYPHIMURIUM, Strain/Indicator: TA100, Metabolic Activation: RAT, LIVER, S-9, PHENOBARBITAL, Method: STANDARD PLATE active; positive | Test System: AMES SALMONELLA TYPHIMURIUM, Strain/Indicator: TA100, Metabolic Activation: RAT, LIVER, S-9, Method: PREINCUBATION active; positive | Test System: AMES SALMONELLA TYPHIMURIUM, Strain/Indicator: TA100, Metabolic Activation: RAT, NADPH-FORTIFIED HOMOGENIZED HEPATOCYTES, AROCLOR 1254, Method: PREINCUBATION active; positive | Test System: AMES SALMONELLA TYPHIMURIUM, Strain/Indicator: TA100, Metabolic Activation: RAT, SONICATED HEPATOCYTES, AROCLOR 1254, Method: PREINCUBATION active; positive | Test System: AMES SALMONELLA TYPHIMURIUM, Strain/Indicator: TA100, Method: STANDARD PLATE active; positive
